Reference: paper PMC12656546, “Enterohepatic Recirculation-Mediated Reabsorption of Aristolochic Acid I: Revealed by Toxicokinetics and Metabolite Identification in Rats” (Toxics, 2025)
Like-named read-outs stand apart in the source and are kept apart here.

How the values were obtained:
[1] = Qualitative analysis of AAI and metabolites in bile of bile duct-cannulated rats; assay type: in vivo, F344 rats; settings: 30 mg/kg AAI oral, bile collected 0–3 h, 3–6 h, 6–9 h, 9–12 h, qualitative UHPLC-Q-Exactive
Description: Ten 6-week-old F344 rats were divided into a control group (n = 2) and a treatment group (n = 8), with equal numbers of males and females in each group. During the experiment, rats were fasted and had access to water ad libitum. Rats in the control group were administered with 0.5% CMC-Na suspension via gastric gavage. For the treatment group, rats were administered with 30 mg/kg of AAI by the same route. Rats underwent bile duct cannulation for bile sample collection. Bile samples were collected at consecutive intervals of 0–3 h, 3–6 h, 6–9 h and 9–12 h after administration.
For each bile sample, a 200 μL aliquot of bile was mixed with an equal volume of a methanol/acetonitrile (1:1, v/v) solution. After vortexing for 2 min, the mixture was centrifuged at 13,200 rpm for 10 min. The precipitate was discarded, and the supernatant was dried under nitrogen gas. The dried residue was reconstituted in 80 μL of methanol, vortexed for 2 min, and centrifuged at 13,200 rpm for 15 min. The resulting supernatant was used for further analysis.
Ultra-high-performance liquid chromatography (UHPLC) coupled with a Q-Exactive orbitrap mass spectrometer (Thermo Fisher Scientific, San Jose, CA, USA) was used to analyzed the metabolites of AAI in rat bile. An ACQUITY UPLC BEH C18 column (2.1 mm × 50 mm, 1.7 μm, Waters, Milford, MA, USA) was employed for chromatographic separation. The mobile phase consisted of water containing 5 mmol/L ammonium formate/0.1% formic acid (A) and acetonitrile (B).
Metabolites in bile samples were analyzed using electrospray ionization (ESI) in both positive and negative ion modes. The spray voltage was set at 3500 V for positive mode and 3000 V for negative mode. The ion transfer tube temperature was maintained at 350 °C with a vaporizer temperature of 300 °C. The sheath gas and auxiliary gas flow rates were 35 Arb and 10 Arb. Full-scan MS data were acquired at a resolution of 35,000 within the mass range of m/z 100–1200. For MS/MS analysis, data-dependent acquisition (DDA) was performed at a resolution of 17,500 using high-energy collision dissociation (HCD). Post-acquisition data was imported into Compound Discoverer 2.1 software to identify AAI metabolites. Blank matrices were processed alongside samples to exclude the background interferences.

[2] = Stability of AAI in rat plasma samples (QC samples); assay type: in vitro ADME; settings: n = 3
Description: A full validation of the bioanalytical method for the quantitative analysis of AAI in rat plasma was performed in inherence to the ICH M10 guideline. Selectivity, accuracy and precision, matrix effects, calibration curve and range, dilution integrity and stability were fully validated. The analyzed QCs included a lower limit of quantitation (LLOQ) sample, low QC (LQC), medium QC (MQC) and high QC (HQC). QCs of four concentration levels (LLOQ: 1 ng/mL; LQC: 3 ng/mL; MQC: 400 ng/mL; HQC: 800 ng/mL) were prepared by spiking AAI with blank plasma collected from 6 rats.
Stability evaluation was carried out by analyzing LQCs and HQCs after storage under different conditions. Freeze–thaw stability was assessed after 3 cycles of freezing and thawing. Short-term stability was tested by keeping the LQCs and HQCs on the bench top at room temperature for the same duration as the study samples. Stability of the analyte in processed samples was tested by placing the processed samples in an autosampler for 16 h. Long-term stability was assessed by storing LQCs and HQCs at −20 °C for 15 days. The mean concentration at each QC level should be within ±15% of the nominal concentration.

[3] = nine months after a single administration of AAI, cited from earlier work
[4] = Freeze–thaw stability (3 cycles), rat plasma, nominal conc. 3 ng/mL
[5] = Freeze–thaw stability (3 cycles), rat plasma, nominal conc. 800 ng/mL
[6] = Long-term stability (−20 °C, 15 days), rat plasma, nominal conc. 3 ng/mL
[7] = Long-term stability (−20 °C, 15 days), rat plasma, nominal conc. 800 ng/mL
[8] = Post-processing stability (processed samples in autosampler 16 h), nominal conc. 3 ng/mL
[9] = Post-processing stability (processed samples in autosampler 16 h), nominal conc. 800 ng/mL
[10] = Short-term stability (bench top, room temperature), rat plasma, nominal conc. 3 ng/mL
[11] = Short-term stability (bench top, room temperature), rat plasma, nominal conc. 800 ng/mL

**Q.** With COc1cccc2c1cc([N+](=O)[O-])c1c(C(=O)O)cc3c(c12)OCO3 [AAI, Aristolochic acid I] as the molecule, how does the “detection in bile (biliary excretion)” value [1] read?
**A.** detected in bile collected during 0–3 h and 3–6 h intervals post-administration

**Q.** And the “Accuracy (%Dev)” value [2, 4]?
**A.** 4.10 %Dev

**Q.** And the “Mean Calculated Conc.” value [2, 4]?
**A.** 3.12 ng/mL

**Q.** What about the “Accuracy (%Dev)” value [2, 5] of the same molecule?
**A.** 1.30 %Dev

**Q.** What about the “Mean Calculated Conc.” value [2, 5] of the same molecule?
**A.** 810.42 ng/mL

**Q.** And the “Accuracy (%Dev)” value [2, 6]?
**A.** 6.54 %Dev

**Q.** And the “Mean Calculated Conc.” value [2, 6]?
**A.** 3.20 ng/mL

**Q.** And the “Accuracy (%Dev)” value [2, 7]?
**A.** 4.71 %Dev

**Q.** And the “Mean Calculated Conc.” value [2, 7]?
**A.** 837.66 ng/mL

**Q.** And the “Accuracy (%Dev)” value [2, 8]?
**A.** −10.53 %Dev

**Q.** What about the “Mean Calculated Conc.” value [2, 8] of the same molecule?
**A.** 2.68 ng/mL

**Q.** And the “Accuracy (%Dev)” value [2, 9]?
**A.** −11.83 %Dev

**Q.** What about the “Mean Calculated Conc.” value [2, 9] of the same molecule?
**A.** 705.33 ng/mL

**Q.** What about the “Accuracy (%Dev)” value [2, 10] of the same molecule?
**A.** 3.46 %Dev

**Q.** And the “Mean Calculated Conc.” value [2, 10]?
**A.** 3.10 ng/mL

**Q.** And the “Accuracy (%Dev)” value [2, 11]?
**A.** −2.99 %Dev

**Q.** What about the “Mean Calculated Conc.” value [2, 11] of the same molecule?
**A.** 776.07 ng/mL

**Q.** What about the “mice developing liver cancer” value ([3]; female mice) of the same molecule?
**A.** 41.67%

**Q.** And the “mice developing liver cancer” value ([3]; male mice)?
**A.** 78.57%
